According to patent publication US9480259B2, “Pyrazolopyrans having herbicidal and pharmaceutical properties” (BASF SE, priority 2012, dated 2016):

Target: Arabidopsis thaliana SHMT
Test: SHMT activity assay (ED50 SHMT), coupled with N5,N10-CH2-THF dehydrogenase, NADH at 340 nm
Assay type: biochemical
Conditions: Table 2; values given as upper bounds
Protocol: Determination of the ED50 SHMT was carried out as described hereinunder.
Purification of Arabidopsis thaliana SHMT
The following buffers were used during the purification protocol:
Buffer A (Lysis and Wash Buffer): • 20 mM Na-Phosphat (pH 7,4) • 500 mM NaCI • 40 mM Imidazole • 1.0 mM L-Serine • 0.5 mM Pyridoxal-5-phosphate • 0.5 mM DTT
Buffer B (Elution Buffer): • 20 mM Na-Phosphat (pH 7,4) • 500 mM NaCl • 250 mM Imidazole • 1.0 mM L-Serine • 0.5 mM Pyridoxal-5-phosphate • 0.5 mM DTT
All procedures were conducted at 4° C. or on ice. Pellets were suspended in Buffer A containing 1 mg/ml DNAse +Complete EDTA-free protease inhibitor tablet. Cells were lysed using sonication or a French Press device, using standard settings. Lysis was centrifuged at 40000×g for 25 minutes. The supernatant was filtered (0.22 μM) before loading onto a Ni-NTA column.
A gravity flow column containing Ni-NTA resin was equilibrated with 10 CV Buffer A and loaded with filtered cell lysate. The column was then washed with 10 CV Buffer A. Elution was afforded using Buffer B and collected manually as mini-factions. EDTA was added after elution to a final concentration of 1 mM. Fractions were pooled on the basis of the correct band for SHMT visualised via SDS-PAGE and staining.
SHMT Assay Buffer: • 50 mM KH2PO4 (pH 7,4) • 2.0 mM NAD+ • 7.5 mM DTT • 0.3 mM Tetrahydrofolic acid • 4% DMSO
Reaction Start: 20 mM L-Serine
The rate of N5,N10-CH2-THF formation catalyzed by SHMT was monitored at 340 nm by coupling with excess N5,N10-CH2-THF dehydrogenase, which converts NAD+to NADH. Reactions were initiated by adding 20 mM L-Serine. Inhibition of initial velocity was determined by adding various inhibitors of the SHMT reaction and monitored as described. Reactions were measured in a Bio Tek micro titer plate reader following the change in absorption with the formation of NADH for 30 mimnutes.

SMILES	EC50 [µM]
CCC1(c2cc(C(F)(F)F)cc(C(F)(F)F)c2)C(C#N)=C(N)Oc2[nH]nc(C(C)C)c21 (stereo not shown) [Compound 2.120.]	< 0.1
CCC1(c2cc(C(F)(F)F)cc(C(F)(F)F)c2)C(C#N)=C(N)Oc2[nH]nc(C3CC3)c21 (stereo not shown) [Compound 2.121.]	< 0.1
Cc1n[nH]c2c1C(c1cccc(Cl)c1)(C(C)C)C(C#N)=C(N)O2 (stereo not shown) [Compound 2.122.]	< 0.1
CSc1ccc(C2(C(C)C)C(C#N)=C(N)Oc3[nH]nc(C)c32)cc1 (stereo not shown) [Compound 2.123.]	< 0.1
COc1ccc(C2(C(C)C)C(C#N)=C(N)Oc3[nH]nc(C)c32)cc1Cl (stereo not shown) [Compound 2.124.]	< 0.01
Cc1n[nH]c2c1C(CC(C)C)(c1cc(Cl)cc(Cl)c1)C(C#N)=C(N)O2 (stereo not shown) [Compound 2.125.]	< 0.1
Cc1n[nH]c2c1C(CC(C)C)(c1cccc(Cl)c1)C(C#N)=C(N)O2 (stereo not shown) [Compound 2.126.]	< 1
N#CC1=C(N)Oc2[nH]nc(C3CC3)c2C1(c1ccc(Cl)cc1)C1CC1 (stereo not shown) [Compound 2.129.]	< 10
CCc1n[nH]c2c1C(CC)(c1ccc(Oc3ccccc3)cc1)C(C#N)=C(N)O2 (stereo not shown) [Compound 2.130.]	< 1
CCC1(c2ccc(Oc3ccccc3)cc2)C(C#N)=C(N)Oc2[nH]nc(C3CC3)c21 (stereo not shown) [Compound 2.131.]	< 10
CCC1(c2cc(Cl)cc(Cl)c2)C(C#N)=C(N)Oc2[nH]nc(C(C)C)c21 (stereo not shown) [Compound 2.132.]	< 1
CCC1(c2cc(Cl)cc(Cl)c2)C(C#N)=C(N)Oc2[nH]nc(C3CC3)c21 (stereo not shown) [Compound 2.133.]	< 1
Cc1n[nH]c2c1C(c1ccc(F)c(Cl)c1)(C(C)C)C(C#N)=C(N)O2 (stereo not shown) [Compound 2.134.]	< 0.1
Cc1n[nH]c2c1C(c1ccc(Cl)c(Cl)c1)(C(C)C)C(C#N)=C(N)O2 (stereo not shown) [Compound 2.135.]	< 0.1
CC(C)C1(c2cc(Cl)cc(Cl)c2)C(C#N)=C(N)Oc2[nH]nc(C3CC3)c21 (stereo not shown) [Compound 2.136.]	< 0.1
Cc1n[nH]c2c1C(c1cccc(C(F)(F)F)c1)(C(C)C)C(C#N)=C(N)O2 (stereo not shown) [Compound 2.137.]	< 0.1
N#CC1=C(N)Oc2[nH]nc(C3CC3)c2C1(c1ccc(Cl)cc1)C1CCC1 (stereo not shown) [Compound 2.140.]	< 10
Cc1n[nH]c2c1C(CC(C)C)(c1ccc(Cl)c(Cl)c1)C(C#N)=C(N)O2 (stereo not shown) [Compound 2.141.]	< 1
Cc1n[nH]c2c1C(CC(C)C)(c1ccc(Cl)cc1)C(C#N)=C(N)O2 (stereo not shown) [Compound 2.142.]	< 10
Cc1n[nH]c2c1C(c1ccc(Cl)cc1)(C(C)C)C(C#N)=C(N)O2 (stereo not shown) [Compound 2.143.]	< 1

SMILES	EC50 [µM]
COc1ccc(C2(C(C)C)C(C#N)=C(N)Oc3[nH]nc(C)c32)cc1C(F)(F)F (stereo not shown) [Compound 2.144.]	< 0.01
CCc1n[nH]c2c1C(c1ccc(OC)c(Cl)c1)(C(C)C)C(C#N)=C(N)O2 (stereo not shown) [Compound 2.147.]	< 1
COc1ccc(C2(C(C)C)C(C#N)=C(N)Oc3[nH]nc(C4CC4)c32)cc1Cl (stereo not shown) [Compound 2.148.]	< 1
CCc1n[nH]c2c1C(c1ccc(OC)c(C(F)(F)F)c1)(C1CC1)C(C#N)=C(N)O2 (stereo not shown) [Compound 2.152.]	< 1
CCc1n[nH]c2c1C(c1cc(Cl)cc(Cl)c1)(C1CCC1)C(C#N)=C(N)O2 (stereo not shown) [Compound 2.155.]	< 0.1
CCC1(c2ccc(Oc3ccc(C(F)(F)F)cc3Cl)c(C)c2)C(C#N)=C(N)Oc2[nH]nc(C3CC3)c21 (stereo not shown) [Compound 2.164.]	< 10
CCC1(c2cccc(Cl)c2)C(C#N)=C(N)Oc2[nH]nc(C(F)F)c21 (stereo not shown) [Compound 2.165.]	< 1
CCC1(c2cc(C(F)(F)F)cc(C(F)(F)F)c2)C(C#N)=C(N)Oc2[nH]nc(C(F)F)c21 (stereo not shown) [Compound 2.166.]	< 0.1
COc1ccc(C2(C(C)C)C(C#N)=C(N)Oc3[nH]nc(C)c32)cc1 (stereo not shown) [Compound 2.167.]	< 1
N#CC1=C(N)Oc2[nH]nc(C(F)F)c2C1(c1cc(Cl)cc(Cl)c1)C1CCC1 (stereo not shown) [Compound 2.168.]	< 0.1
CCc1n[nH]c2c1C(c1cccc(C(F)(F)F)c1)(C1CCC1)C(C#N)=C(N)O2 (stereo not shown) [Compound 2.170.]	< 0.1
N#CC1=C(N)Oc2[nH]nc(C3CC3)c2C1(c1cccc(C(F)(F)F)c1)C1CCC1 (stereo not shown) [Compound 2.171.]	< 0.1
N#CC1=C(N)Oc2[nH]nc(C3CC3)c2C1(c1cccc(Cl)c1)C1CCC1 (stereo not shown) [Compound 2.174.]	< 0.1
N#CC1=C(N)Oc2[nH]nc(C(F)F)c2C1(c1cccc(C(F)(F)F)c1)C1CCC1 (stereo not shown) [Compound 2.175.]	< 1
Cc1n[nH]c2c1C(c1cc(Cl)cc(Cl)c1)(C1(F)CCC1)C(C#N)=C(N)O2 (stereo not shown) [Compound 2.180.]	< 0.1
Cc1n[nH]c2c1C(c1cc(C(F)(F)F)cc(C(F)(F)F)c1)(C1CCC1)C(C#N)=C(N)O2 (stereo not shown) [Compound 2.191.]	< 0.1
N#CC1=C(N)Oc2[nH]nc(C(F)F)c2C1(c1cccc(C#N)c1)C1CCC1 (stereo not shown) [Compound 2.194.]	< 1
N#CC1=C(N)Oc2[nH]ncc2C1(c1cccc(C(F)(F)F)c1)C1CCC1 (stereo not shown) [Compound 2.195.]	< 1
COCc1n[nH]c2c1C(c1cccc(C(F)(F)F)c1)(C1CCC1)C(C#N)=C(N)O2 (stereo not shown) [Compound 2.196.]	< 1
CCCCCCc1n[nH]c2c1C(CC)(c1cccc(Cl)c1)C(C#N)=C(N)O2 (stereo not shown) [Compound 2.197.]	< 1

The next lines start with the values.

EC50 [µM]	SMILES
< 10	CC(C)c1n[nH]c2c1C(c1ccc(Cl)cc1)(C1CC1)C(C#N)=C(N)O2 (stereo not shown) [Compound 2.128.]
< 1	Cc1n[nH]c2c1C(c1ccc(Cl)cc1)(C1CCC1)C(C#N)=C(N)O2 (stereo not shown) [Compound 2.138.]
< 1	CCc1n[nH]c2c1C(c1ccc(Cl)cc1)(C1CCC1)C(C#N)=C(N)O2 (stereo not shown) [Compound 2.139.]
< 0.1	Cc1n[nH]c2c1C(c1cc(Cl)cc(Br)c1)(C1CC1)C(C#N)=C(N)O2 (stereo not shown) [Compound 2.146.]
< 0.1	COc1ccc(C2(C3CC3)C(C#N)=C(N)Oc3[nH]nc(C)c32)cc1Cl (stereo not shown) [Compound 2.149.]
< 0.1	COc1ccc(C2(C3CC3)C(C#N)=C(N)Oc3[nH]nc(C)c32)cc1C(F)(F)F (stereo not shown) [Compound 2.150.]
< 1	CCc1n[nH]c2c1C(c1ccc(OC)c(Cl)c1)(C1CC1)C(C#N)=C(N)O2 (stereo not shown) [Compound 2.151.]
< 0.1	Cc1n[nH]c2c1C(c1cc(Cl)cc(Oc3ccccc3)c1)(C1CC1)C(C#N)=C(N)O2 (stereo not shown) [Compound 2.153.]
< 0.01	Cc1n[nH]c2c1C(c1cc(Cl)cc(Cl)c1)(C1CCC1)C(C#N)=C(N)O2 (stereo not shown) [Compound 2.154.]
< 0.1	Cc1n[nH]c2c1C(c1cc(F)cc(Cl)c1)(C1CCC1)C(C#N)=C(N)O2 (stereo not shown) [Compound 2.157.]
< 0.01	Cc1n[nH]c2c1C(c1cccc(C(F)(F)F)c1)(C1CCC1)C(C#N)=C(N)O2 (stereo not shown) [Compound 2.169.]
< 0.1	Cc1n[nH]c2c1C(c1cccc(Cl)c1)(C1CCC1)C(C#N)=C(N)O2 (stereo not shown) [Compound 2.172.]
< 0.1	CCc1n[nH]c2c1C(c1cccc(Cl)c1)(C1CCC1)C(C#N)=C(N)O2 (stereo not shown) [Compound 2.173.]
< 0.01	COc1ccc(C2(C3CCC3)C(C#N)=C(N)Oc3[nH]nc(C)c32)cc1C(F)(F)F (stereo not shown) [Compound 2.176.]
< 0.01	COc1ccc(C2(C3CCC3)C(C#N)=C(N)Oc3[nH]nc(C)c32)cc1Cl (stereo not shown) [Compound 2.178.]
< 0.1	Cc1n[nH]c2c1C(c1cc(Cl)cc(Oc3ccccc3)c1)(C1CCC1)C(C#N)=C(N)O2 (stereo not shown) [Compound 2.179.]
< 0.1	Cc1n[nH]c2c1C(c1ccc(F)c(Cl)c1)(C1CCC1)C(C#N)=C(N)O2 (stereo not shown) [Compound 2.182.]
< 1	Cc1n[nH]c2c1C(c1ccc(OC(F)(F)F)cc1)(C1CCC1)C(C#N)=C(N)O2 (stereo not shown) [Compound 2.183.]
< 0.1	Cc1n[nH]c2c1C(c1cc(Cl)cc(-c3ccccc3)c1)(C1CC1)C(C#N)=C(N)O2 (stereo not shown) [Compound 2.184.]
< 0.1	Cc1n[nH]c2c1C(c1ccc(OCc3ccccc3)c(Cl)c1)(C(C)C)C(C#N)=C(N)O2 (stereo not shown) [Compound 2.185.]
< 0.1	Cc1n[nH]c2c1C(c1ccc(OCc3ccccc3)c(Cl)c1)(C1CC1)C(C#N)=C(N)O2 (stereo not shown) [Compound 2.186.]
< 0.1	Cc1n[nH]c2c1C(c1cc(Cl)cc(-c3cccc(F)c3)c1)(C1CC1)C(C#N)=C(N)O2 (stereo not shown) [Compound 2.187.]
< 0.1	Cc1n[nH]c2c1C(c1cc(Cl)cc(Oc3ccc(F)cc3)c1)(C1CC1)C(C#N)=C(N)O2 (stereo not shown) [Compound 2.189.]
< 0.1	Cc1n[nH]c2c1C(c1cc(Cl)cc(Oc3cccc(F)c3)c1)(C1CC1)C(C#N)=C(N)O2 (stereo not shown) [Compound 2.190.]
< 0.1	Cc1n[nH]c2c1C(c1cccc(C#N)c1)(C1CCC1)C(C#N)=C(N)O2 (stereo not shown) [Compound 2.192.]
< 0.01	Cc1n[nH]c2c1C(c1ccc(Cl)c(Cl)c1)(C1CCC1)C(C#N)=C(N)O2 (stereo not shown) [Compound 2.193.]
< 0.01	Cc1n[nH]c2c1C(c1cc(Cl)cc(-c3ccsc3)c1)(C1CCC1)C(C#N)=C(N)O2 (stereo not shown) [Compound 2.198.]
